Common to all, as to format: functional
Assay [1] deals with Escherichia coli. Nature of the assay: In vitro antibacterial activity against Escherichia coli 1850 strain.
For another assay, the system named is Enterococcus faecalis. Nature of the assay: In vitro antibacterial activity against Enterococcus faecalis 850 strain.
Assay [2] has as its system Escherichia coli. The assay can be described thus: In vitro antibacterial activity against Escherichia coli 1919 strain.
Another assay has as its system Pseudomonas aeruginosa. Nature of the assay: In vitro antibacterial activity against Pseudomonas aeruginosa 1911 strain.
Assay [3] relates to Staphylococcus aureus. Nature of the assay: In vitro antibacterial activity against Staphylococcus aureus 853 strain.
The subject of assay [4] is Staphylococcus aureus. Nature of the assay: In vitro antibacterial activity against Staphylococcus aureus 663 strain.

In brackets after ≈: the same amount, converted by molar mass. A value given as a limit tells only on which side of the number the result lay.

The text below walks through data of ChEMBL document CHEMBL1129122, “Synthesis and antimicrobial activity of 4-amino trinems” (1996).

For `C[C@@H](O)[C@H]1C(=O)N2C(C(=O)O)=C3[C@@H](N)CCC[C@@H]3[C@H]12`, the MIC against Escherichia coli [1] stood at 1 µg/mL (≈ 3.76 µM); in the assay with Enterococcus faecalis it was 16 µg/mL (≈ 60.1 µM); with Escherichia coli [2], 0.5 µg/mL (≈ 1.88 µM); in the assay on Pseudomonas aeruginosa it was 4 µg/mL (≈ 15 µM); in the assay on Staphylococcus aureus [3], 0.25 µg/mL (≈ 0.939 µM); with Staphylococcus aureus [4] it was 0.25 µg/mL (≈ 0.939 µM).

For the compound `C[C@@H](O)[C@H]1C(=O)N2C(C(=O)O)=C3[C@H](CCC[C@@H]3N(C)C)[C@H]12`, the MIC in the assay on Escherichia coli [1] is 2 µg/mL (≈ 6.79 µM); against Enterococcus faecalis, over 32 µg/mL; against Escherichia coli [2], 1 µg/mL (≈ 3.4 µM); against Pseudomonas aeruginosa, 8 µg/mL (≈ 27.2 µM); against Staphylococcus aureus [3], 0.25 µg/mL (≈ 0.849 µM); against Staphylococcus aureus [4], 0.25 µg/mL (≈ 0.849 µM).

For `C[C@@H](O)[C@H]1C(=O)N2C(C(=O)O)=C3[C@@H](NC4CCCC4)CCC[C@@H]3[C@H]12`, the minimum inhibitory concentration (MIC) with Escherichia coli [1] is 8 µg/mL (≈ 23.9 µM); in the assay on Enterococcus faecalis, 32 µg/mL (≈ 95.7 µM); against Escherichia coli [2], 32 µg/mL (≈ 95.7 µM); against Pseudomonas aeruginosa, 32 µg/mL (≈ 95.7 µM); with Staphylococcus aureus [3], 4 µg/mL (≈ 12 µM); in the assay on Staphylococcus aureus [4], 8 µg/mL (≈ 23.9 µM).

Turning to `CN[C@H]1CCC[C@H]2C1=C(C(=O)O)N1C(=O)[C@H]([C@@H](C)O)[C@@H]21`, the MIC against Escherichia coli [1] was 2 µg/mL (≈ 7.13 µM); with Enterococcus faecalis, 16 µg/mL (≈ 57.1 µM); with Escherichia coli [2], 0.5 µg/mL (≈ 1.78 µM); in the assay with Pseudomonas aeruginosa, 4 µg/mL (≈ 14.3 µM); in the assay on Staphylococcus aureus [3], 0.5 µg/mL (≈ 1.78 µM); against Staphylococcus aureus [4] it was 0.25 µg/mL (≈ 0.892 µM).

`CO[C@H]1CCC[C@H]2C1=C(C(=O)[O-])N1C(=O)[C@H]([C@@H](C)O)[C@@H]21.[Na+]` [SANFETRINEM SODIUM]: the MIC in the assay on Escherichia coli [1] is 0.5 µg/mL; in the assay with Enterococcus faecalis it was 1 µg/mL; against Escherichia coli [2], 0.5 µg/mL; in the assay with Pseudomonas aeruginosa, over 32 µg/mL; against Staphylococcus aureus [3], 0.25 µg/mL; against Staphylococcus aureus [4], 0.25 µg/mL.
